Data as given in PMC7531004, “Discovery of gramicidin A analogues with altered activities by multidimensional screening of a one-bead-one-compound library” (Nature Communications, 2020).
Where “and” joins values, the source holds several entries; their conditions need not be identical. Identical values can stand only once. Where a SMILES comes first, the peptide text is derived from it. [ ]: non-standard residue; d: D form. The star is where a group is joined. NHCH2CH2OH = OCCN*; For = O=C*

Assays:
[1] = test system: Listeria monocytogenes 10403S; details: for antibacterial activity/MIC: L. monocytogenes
Method: (§1) Third, 1 was subjected to five pathogenic Gram-positive bacteria.
(§2) Evaluation of antibacterial spectra of purified peptides. The MIC assay was performed according to the Clinical and Laboratory Standards Institute protocols. The antibacterial activities of the purified peptides A1, B01–B04, B11–B13, B21, and B22 were measured using the broth microdilution method. 6 Serial dilutions of the peptides were prepared in cation adjusted Mueller Hinton Broth. Each dilution (100 µL) was dispensed to each well of the round-bottom plate to obtain final concentrations ranging from 64 µg/mL to 0.00024 µg/mL. Bacteria were grown at 37 °C overnight on Tryptic Soy Broth or Mueller Hinton Broth agar plates.
(§3) The bacterial colonies were suspended in 0.9% saline to obtain OD 625 of 0.08–0.13 using a spectrophotometer UV-1280 (Shimadzu). The resultant suspension was diluted with cation adjusted Mueller Hinton Broth (1/20). The resultant mixture (10 .0 µL) was inoculated to each well of the plates (approximately 5 × 10^4 CFU/well), mixed, and incubated at 37 °C for 18–24 h. The MIC value was determined as the minimum concentration that inhibited growth of bacteria. For Streptococcus species, cation adjusted Mueller Hinton Broth supplemented with 5% laked horse blood was used. […]

[2] = test system: Streptococcus pneumoniae NBRC 102642; details: for Antibacterial activity MIC: NBRC 102642; for antibacterial activity/MIC: S. pneumoniae
Method: as §1, §2, §3

[3] = test system: Streptococcus pyogenes SSI-9; details: for antibacterial activity/MIC: S. pyogenes; for Antibacterial activity MIC: SSI-9
Method: as §1, §2, §3

[4] = test system: Streptococcus agalactiae JCM5671; details: for Antibacterial activity MIC: JCM5671; for antibacterial activity/MIC: S. agalactiae
Method: as §1, §2, §3

[5] = test system: Enterococcus faecalis JCM5803; details: for antibacterial activity/MIC: E. faecalis; for Antibacterial activity MIC: JCM5803
Method: as §1, §2, §3

[6] = Membrane disruption assay of purified peptides (carboxyfluorescein leakage); format: biochemical; design: key: % lysis; Triton X-100 = 100%, DMSO = 0%; details: three replicate lines
Method: Membrane disruption assay of purified peptides. 5(6)-Carboxyfluorescein (CF)-encapsulated large […]
through Nuclepore polycarbonate filters mounted in the mini-extruder apparatus. A solution of egg yolk phosphatidylcholine (EYPC, 22.0 mg, 28.9 µmol) in CHCl3 (225 µL) and egg yolk phosphatidylglycerol (1.2 0 […]
mM HEPES, 100 mM NaCl, 20 mM CF) by sonication. After five -times freeze-thaw cycles, the lipid […]
concentration of the resultant CF -encapsulated LUV suspension was deduced from the phosphatidylcholine concentration determined by using Phospholipid C -Test Wako. The lipid concentration of the LUV […]
as 5-fold serial dilution. The solution of peptide (2.0 µL) and the CF-encapsulated LUV suspension (200 […]
The resultant suspension was incubated at room temperature for 30 min. The fluorescence (Ex. 490 nm/Em. 517 nm) of each well was measured on Gemini EM microplate reader. Triton X-100/H2O (5/95, 3.0 µL), DMSO (2.0 µL), and the LUV suspension were mixed in each plate to determine 100% lysis. […]
was used to determine 0% lysis. The membrane disruption activities of tested peptides ( I) were normalized against 100% lysis by Triton X-100 (Imax) and 0% lysis by DMSO ( I0) according to Supplementary Equation 2 , where Ix is the fluorescence intensity.
The membrane disruption activities of the purified peptides were plotted as means of three replicates (Supplementary Figure 1).

rabbit red blood cells = details: red cells of rabbit, 2 h
Method: Second, we examined the cytotoxicity toward mammalian cancer cells and hemolytic activity of 1. […] Hemolytic activity was evaluated by monitoring hemoglobin leakage from rabbit red blood cells as a consequence of membrane damage. The concentration of 1 required to cause 10% hemoglobin leakage (HC10) was 160 nM. Thus, the P388 cytotoxicity of 1 was 28-fold more sensitive than its hemolytic activity.
Hemolysis assay of purified peptides. […]
with DMSO to various concentrations as 3-fold serial dilution. A 50% suspension of rabbit blood in Alsever's solution was obtained from Nippon Bio -Supp. Center . The blood suspension (250 µL) w as diluted with phosphate buffered saline (no calcium, no magnesium, 1.00 mL). The resultant suspension was centrifuged at 1000 × g for 3 min at 8 °C. The supernatant was discarded, and the collected cells were resuspended in phosphate buffered saline (no calcium, no magnesium, 1.00 mL). The same procedure was repeated (× 3). The resultant suspension (100 µL) was diluted with phosphate buffered saline (no calcium, no magnesium, 4.90 mL) to give 0.2% red blood cells suspension. The 0.2% red blood cells suspension (95.0 µL) and each dilution series of the purified peptide in DMSO (5 .0 µL) were mixed in 2 mL microtube.
supernatant was transferred to a 96-well plate (TR5003, TrueLine). The absorbance of each well at 415 nm was measured using a Thermo Scientific Multiskan GO (Thermo Fisher Scientific). The mixture of Triton X-100/H2O (5/95, 2.0 µL), DMSO (5.0 µL), and the 0.2% red blood cells suspension (95.0 µL) was used to determine 100% hemolysis. The mixture of DMSO (5.0 µL) and the 0.2% red blood cells suspension (95.0 µL) was used to determine 0% hemolysis. The hemolytic activities of tested peptides ( I) were normalized against 100% hemolysis by Triton X -100 (Imax) and 0% hemolysis by DMSO (I0) according to Supplementary Equation 3, where Ix is the UV absorbance.
I = 100 × (Ix – I0) / (Imax – I0) (3)
The hemolytic activities of the purified peptides were evaluated as the concentrations causing 10% hemolysis (HC10, nM) by means of three replicates. Sigmoidal curve fittings were performed on GraphPad Prism (GraphPad software, Supplementary Figure 7).

[7] = test system: MSSA1 (methicillin-susceptible Staphylococcus aureus); format: cell-based
Method: as §2, §3

SMILES	antibacterial activity/MIC [1]	antibacterial activity/MIC [2]	antibacterial activity/MIC [3]	Antibacterial activity MIC [4]	antibacterial activity/MIC [4]	antibacterial activity/MIC [5]	Antibacterial activity MIC [5]	Supplementary Figure 1 dose-response value ([6]; concentration 0.000512 nM)	Supplementary Figure 1 dose-response value ([6]; concentration 0.00256 nM)	Supplementary Figure 1 dose-response value ([6]; concentration 0.0128 nM)	Supplementary Figure 1 dose-response value ([6]; concentration 0.064 nM)	Supplementary Figure 1 dose-response value ([6]; concentration 0.32 nM)	Supplementary Figure 1 dose-response value ([6]; concentration 1.6 nM)	Supplementary Figure 1 dose-response value ([6]; concentration 8 nM)	Supplementary Figure 1 dose-response value ([6]; concentration 40 nM)	Supplementary Figure 1 dose-response value ([6]; concentration 200 nM)	Supplementary Figure 1 dose-response value ([6]; concentration 1000 nM)	Supplementary Figure 1 dose-response value ([6]; concentration 5000 nM)	Hemolytic activity HC10 (concentration causing 10% hemolysis) (rabbit red blood cells)	antibacterial activity/MIC [7]	also measured
CC(C)C[C@@H](NC(=O)[C@H](C)NC(=O)CNC(=O)[C@@H](NC=O)C(C)C)C(=O)N[C@@H](C)C(=O)N[C@H](CC(C)C)C(=O)N[C@H](C(=O)N[C@H](CC(C)C)C(=O)N[C@@H](Cc1c[nH]c2ccccc12)C(=O)N[C@H](CC(C)C)C(=O)N[C@@H](Cc1c[nH]c2ccccc12)C(=O)N[C@@H](C(=O)N[C@@H](Cc1c[nH]c2ccccc12)C(=O)N[C@@H](C(=O)N[C@@H](Cc1c[nH]c2ccccc12)C(=O)NCCO)C(C)C)[C@H](C)O)C(C)C [B11] (For-VGA[dL]A[dL]V[dL]W[dL]W[dT]W[dV]W-NHCH2CH2OH)	4 µg/mL	0.031 µg/mL	0.5 µg/mL	8.5 µM	16 µg/mL	2 µg/mL	1.1 µM	5.494 and 6.863 and 12.708	14.2851 and 9.552 and 1.714	7.111 and 13.4023 and 5.9017	7.045 and 5.618 and 12.7128	7.504 and 4.742 and -0.9072	6.643 and 8.722 and 7.953	9.977 and 11.641 and 10.0816	10.5587 and 19.8477 and 14.3879	16.8668 and 21.6675 and 22.4815	29.3702 and 19.1829 and 26.8244	51.942 and 51.7671 and 63.4556	910 nM	8 µg/mL	Antibacterial activity MIC [2]: 0.017 µM; Antibacterial activity MIC [3]: 0.27 µM
CC(C)C[C@@H](NC(=O)[C@H](C)NC(=O)CNC(=O)[C@@H](NC=O)C(C)C)C(=O)N[C@@H](C)C(=O)N[C@@H](C(=O)N[C@H](C(=O)N[C@@H](C(=O)N[C@@H](Cc1c[nH]c2ccccc12)C(=O)N[C@H](CC(C)C)C(=O)N[C@@H](Cc1c[nH]c2ccccc12)C(=O)N[C@H](CC(C)C)C(=O)N[C@@H](Cc1c[nH]c2ccccc12)C(=O)N[C@@H](C(=O)N[C@@H](Cc1c[nH]c2ccccc12)C(=O)NCCO)C(C)C)[C@H](C)O)C(C)C)C(C)C [B12] (For-VGA[dL]A[dV]V[dT]W[dL]W[dL]W[dV]W-NHCH2CH2OH)	4 µg/mL	0.016 µg/mL	0.13 µg/mL	8.6 µM	16 µg/mL	2 µg/mL	1.1 µM	14.3151 and 14.218 and 7.531	2.34 and -6.416 and 3.105	5.88 and 8.131 and 3.94	3.705 and 7.973 and 3.229	3.808 and 6.955 and 6.51	8.996 and 0.3041 and 5.919	7.9647 and 15.5867 and 17.3879	5.306 and 8.903 and 13.6255	28.0368 and 20.6509 and 3.758	25.4415 and 27.5334 and 28.0661	41.4626 and 58.8643 and 47.4572	> 3000 nM	4 µg/mL	
CC(C)C[C@@H](NC(=O)[C@H](C)NC(=O)CNC(=O)[C@@H](NC=O)C(C)C)C(=O)N[C@@H](C)C(=O)N[C@@H](C(=O)N[C@H](C(=O)N[C@@H](C(=O)N[C@@H](Cc1c[nH]c2ccccc12)C(=O)N[C@@H](C(=O)N[C@@H](Cc1c[nH]c2ccccc12)C(=O)N[C@H](CC(C)C)C(=O)N[C@@H](Cc1c[nH]c2ccccc12)C(=O)N[C@@H](C(=O)N[C@@H](Cc1c[nH]c2ccccc12)C(=O)NCCO)C(C)C)C(C)C)C(C)C)C(C)C)C(C)C [B04] (For-VGA[dL]A[dV]V[dV]W[dV]W[dL]W[dV]W-NHCH2CH2OH)	8 µg/mL	0.016 µg/mL	0.063 µg/mL	4.3 µM	8 µg/mL	1 µg/mL	0.54 µM	5.512 and 4.537 and 0.4455	-0.04863 and -3.2 and 2.187	9.24 and 8.431 and 0.7987	3.3 and 2.841 and 2.346	3.831 and -2.375 and 0.08227	3.92 and -4.965 and 7.615	4.496 and 6.302 and 12.8514	10.2052 and 8.412 and 22.8437	31.7359 and 28.6719 and 15.6803	31.9617 and 33.3362 and 31.6759	49.4317 and 48.1889 and 46.8231	1100 nM	32 µg/mL	Antibacterial activity MIC ([1]; 10403S): 4.3 µM; Antibacterial activity MIC [2]: 0.0084 µM; Antibacterial activity MIC [3]: 0.034 µM
